Data taken from patent US20250195521A1 (Revolution Medicines, Inc., priority 2020, published 2025).
Like-named read-outs stand apart in the source and are kept apart here.

Assays:
Format in all cases: cell-based, human
[1] = system: NCI-H358 cells (K-Ras G12C); assay: CellTiter-Glo cell viability, NCI-H358; details: K-Ras G12C, 5-day treatment, read-out: H358 Cell Viability IC50
Experimental: Note—The following protocol describes a procedure for monitoring cell viability of K-Ras mutant cancer cell lines in response to a compound of the invention. Other RAS isoforms may be employed, though the number of cells to be seeded will vary based on cell line used.
Test compounds (132.5 nl) were directly dispensed into the assay plates containing cells. […] On day 5, assay plates and their contents were equilibrated to room temperature for approximately 30 minutes. […] Luminescence was measured using the PerkinElmer Enspire. Data were normalized by the following: (Sample signal/Avg. DMSO)*100. The data were fit using a four-parameter logistic fit.

[2] = system: K-Ras G12C (NCI-H358 cells); assay: Potency assay: pERK in NCI-H358 cells; details: Homo sapiens; NCI-H358 cells, 4 hours; read-out: pERK EC50 (H358 KRAS G12C)
Method in brief: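 Cells plated the day before were exposed for 4 h at 37° C, 5% CO2 to a 10-point, 3-fold DMSO dilution series (10 mM top stock), in duplicate. Phospho-ERK was read by AlphaLISA SureFire Ultra or by In-Cell Western with DRAQ5 DNA stain, and IC50 came from a 4-parameter sigmoidal fit.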

[3] = system: Capan-1 cells (K-Ras G12V); assay: CellTiter-Glo cell viability, Capan-1; details: K-Ras G12V, 5-day treatment, read-out: Capan-1 Cell Viability IC50
Method in brief: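 Endpoint: CellTiter-Glo luminescence on day 5, following ~30 min at room temperature. Data as (sample/mean DMSO)×100, four-parameter logistic fit.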

Row | Structure (SMILES) | IC50 [1] [nM] | EC50 [2] [nM] | IC50 ([1]; Homo sapiens, NCI-H358, 120 h) [nM] | IC50 [3] [nM] | IC50 ([3]; Homo sapiens, CAPAN-1, 120 h) [nM]
1 | CCn1c(-c2cccnc2[C@H](C)OC)c2c3cc(ccc31)-c1cc(O)cc(c1)C[C@H](NC(=O)[C@H](C(C)C)N(C)C(=O)[C@H]1C[C@@H]1C)C(=O)N1CCC[C@H](N1)C(=O)OCC(C)(C)C2 [Compound A287] | – | – | 100 to 1000 | – | 100 to 1000
2 | CCn1c(-c2cccnc2[C@H](C)OC)c2c3cc(ccc31)-c1csc(n1)C[C@H](NC(=O)[C@H](C(C)C)N(C)C(=O)N1CCC[C@@H](N(C)C)C1)C(=O)N1CCC[C@H](N1)C(=O)OCC(C)(C)C2 [Compound A531] | – | < 5000 | 10 to 100 | – | 10 to 100
3 | CCn1c(-c2cccnc2[C@H](C)OC)c2c3cc(ccc31)-c1csc(n1)C[C@H](NC(=O)[C@H](C(C)C)N(C)C(=O)N1CCN(C(=O)[C@H]3CCCN3C)CC1)C(=O)N1CCC[C@H](N1)C(=O)OCC(C)(C)C2 [Compound A595] | – | < 5000 | 10 to 100 | – | 100 to 1000

More lines, main results first:

Row | IC50 [1] [nM] | EC50 [2] [nM] | IC50 ([1]; Homo sapiens, NCI-H358, 120 h) [nM] | Structure (SMILES) | IC50 [3] [nM] | IC50 ([3]; Homo sapiens, CAPAN-1, 120 h) [nM]
4 | 100 to 1000 | < 5000 | – | CCn1c(-c2cccnc2[C@H](C)OC)c2c3cc(ccc31)-c1cc(O)cc(c1)C[C@H](NC(=O)[C@H](C(C)C)N(C)C(=O)[C@H]1C[C@@H]1O)C(=O)N1CCC[C@H](N1)C(=O)OCC(C)(C)C2 (single isomer, unassigned) [Compound A346] | 100 to 1000 | –
5 | – | < 5000 | 10 to 100 | CCn1c(-c2cccnc2[C@H](C)OC)c2c3cc(ccc31)-c1csc(n1)C[C@H](NC(=O)[C@H](C(C)C)N(C)C(=O)N1CC[C@@H](O)C1)C(=O)N1CCC[C@H](N1)C(=O)OCC(C)(C)C2 [Compound A376] | – | 10 to 100
6 | – | < 5000 | 10 to 100 | CCn1c(-c2cccnc2[C@H](C)OC)c2c3cc(ccc31)-c1csc(n1)C[C@H](NC(=O)[C@H](C(C)C)N(C)C(=O)N1CC([C@@H](C)N(C)C)C1)C(=O)N1CCC[C@H](N1)C(=O)OCC(C)(C)C2 [Compound A458] | – | 10 to 100
